Laboratory results reported in paper PMC4491869, “Antimicrobial activity of synthetic cationic peptides and lipopeptides derived from human lactoferricin against Pseudomonas aeruginosa planktonic cultures and biofilms” (BMC Microbiology, 2015).
Converted amounts (≈) assume the structure as drawn. Where two headings read alike, the source gives them in different places. Where a SMILES comes first, the peptide text is derived from it. The star is where a group is joined. Butanoyl(2,2-Me2) = CCC(C)(C)C(=O)*; Octanoyl(6-Me) = CCC(C)CCCCC(=O)*; Octanoyl = CCCCCCCC(=O)*

Assays:
[1] = system: Pseudomonas aeruginosa PAO1 planktonic cells; type: cell-based
Method: Minimal inhibitory concentrations (MIC) of the peptides were determined in Mueller Hinton (MH) medium (Difco Laboratories, Detroit, MI, USA) by the broth microdilution assay following recommendations of the Clinical and Laboratory Standards Institute (CLSI, formerly NCCLS) with some modifications. Minimum bactericidal concentration (MBC) was defined as the concentration that caused a 3-log viability decrease in the initial inoculum and was calculated by colony counts on TSA plates incubated for 24 h at 37 °C.

[2] = system: P. aeruginosa PAO1; assay: Time-kill curves (T3log); type: cell-based, Pseudomonas aeruginosa; conditions: MH, 37 °C with shaking, sampling 15 min to 6 h
Method: Time-kill studies were determined with glass tubes containing 10 ml of MH and different concentrations of the peptides (1, 2 and 4 times their MIC). Overnight cultures of P. aeruginosa PAO1 in TSB were adjusted at 5 × 10^7 CFU/ml turbidimetrically. This […] suspension was diluted in the MH tubes (1:50) for the time-kill assay. Tubes were incubated at 37 °C with shaking and samples were taken at the following time points after the beginning of incubation: 15 min, 30 min, 45 min, 1 h, 2 h, 4 h and 6 h. Each sample was serially diluted and plated. The lower limit of detection was 30 CFU/ml (1.5 × log10 CFU/ml).
To quantify the killing efficiency of the treatments, the parameter T3log (defined as the time required for the treatment to decrease 3 logs the initial inoculum) was used.

[3] = system: P. aeruginosa PAO1 biofilms; type: cell-based, Pseudomonas aeruginosa
Method: (§1) In the microplate based assay, biofilms were grown with no fluid shear and the anti-biofilm activity of peptides was assessed as previously described with some modifications. Briefly, overnight cultures of P. aeruginosa PAO1 in TSB were adjusted at 5 × 10^7 CFU/ml turbidimetrically. This suspension was diluted in TSB (1:100) and 100 μl aliquots were added to the wells of a 96-well plate. After 24 h incubation at 37 °C, planktonic bacteria were removed by gently inverting the plate and then the biofilm-containing wells were washed with saline (0.85 % NaCl). The antimicrobial compound was serially diluted in Mueller Hinton (MH) at final concentrations higher than its planktonic MIC and 200 μl of each dilution was added to the wells. After 24 h incubation at 37 °C, biofilms were stained with either MTT (Sigma, St. Louis, MO, USA) or crystal violet (CV). As control, duplicate biofilms were incubated with MH containing no antimicrobial.
To quantify the disinfection (or bactericidal) activity of the antimicrobials on the biofilms, the MTT assay was used and performed as follows. After the treatment, the biofilms were rinsed with saline and 200 μl of a 0.5 mg/ml dilution of MTT in MH, was added to the wells. Incubation of biofilm with MTT was carried out during 4 h at 37 °C with no shaking. As a measure of cell viability, the conversion of MTT to a […] was determined by solubilizing the salt in 100 μl/well of DMSO and reading the absorbance of the resulting solution at 540 nm.
(§2) Both the disinfection and removal activity of antimicrobials were expressed as “activity percentage”, a parameter that was calculated using the following formula: ActivityPercentage=C−B−T−B/C−B×100
(§3) Where C is the absorbance value of the control well with non-treated biofilm, T corresponds to the absorbance value of the well with treated biofilm and B is the blank well (i.e. with no biofilm).

[4] = system: P. aeruginosa PAO1 biofilms; assay: Microplate biofilm assay (static flow regime), crystal violet removal activity; type: cell-based, Pseudomonas aeruginosa; conditions: 10XMIC, 24 h at 37 °C, biofilms grown in microplates (static conditions)
Method: as §1, with “After 24 h incubation at 37 °C, biofilms were stained with either MTT (Sigma, St. Louis, MO, USA) or crystal violet (CV). As control, duplicate biofilms were incubated with MH containing no antimicrobial.” left out
The ability of the antimicrobials to remove the biofilm attached to the microplate well was determined by CV staining. […] The absorbance was measured at 595 nm.
as §2, §3

[5] = system: HeLa cells; assay: Cytotoxicity assay (MTT); type: cell-based; conditions: HeLa cells, 24 h, MTT; maximum concentration assayed 10 times their MIC
Method: Cytotoxicity was assayed on HeLa cells using the MTT [3-(4,5-dimethylthiazoyl-2-yl) 2,5 diphenyltetrazolium bromide protocol. Cells were grown in Dulbeccos’s modified Eagle’s medium (DMEM) and adjusted to a concentration of 10^5 cells/ml (MTT) in 96 wells polystyrene plates. Plates were incubated for 24 h at 37 °C in 5 % CO2, then supplemented with increasing amounts of peptides diluted in 2 mM Hepes pH 7.2, and incubation carried on for 24 h under the same conditions. After this time, filter-sterilized MTT was added in different plates. After 3 h, the content of the wells was gently solved and mixed with 100 μl of DMSO (MTT). Absorbance was measured at 540 nm. Compound cytotoxicity was expressed as LC50, the concentration of the compound that is lethal to 50 % of the cells.

SMILES	MIC (minimal inhibitory concentration) ([1]; PAO1, 24 h) [µg/mL]	MBC (minimal bactericidal concentration) ([1]; PAO1, 24 h) [µg/mL]	T3log at 1X MIC (time needed to decrease 3 logs the initial inoculum) [2] [minutes]	T3log at 2X MIC (time needed to decrease 3 logs the initial inoculum) [2] [minutes]	T3log at 4X MIC (time needed to decrease 3 logs the initial inoculum) [2] [minutes]	Disinfection activity (biofilm-forming bacteria killed, MTT test) ([3]; 10XMIC, 24 h at 37 °C, biofilms grown in microplates (static conditions))	Removal activity (biofilm mass removed, CV test) [4]	MIC (minimal inhibitory concentration) ([1]; PAO1 planktonic cells, broth microdilution in Mueller Hinton medium, CLSI with some modifications) [µg/mL]	MBC (minimal bactericidal concentration) ([1]; PAO1 planktonic cells, concentration causing a 3-log viability decrease in the initial inoculum, colony counts on TSA, 24 h, 37 °C) [µg/mL]	LC50 relative to the maximum concentration assayed [5] [times their MIC]	Disinfection activity (biofilm-forming bacteria killed, MTT test) ([3]; PAO1, 24 h) [%]
CCC(C)CCCCC(=O)N[C@@H](Cc1ccccc1)C(=O)N[C@@H](Cc1c[nH]c2ccccc12)C(=O)N[C@@H](CCCNC(=N)N)C(=O)N[C@H](C(=O)N[C@@H](CCCNC(=N)N)C(=O)N[C@H](C(=O)N[C@@H](CCCNC(=N)N)C(=O)N[C@@H](CCCNC(=N)N)C(N)=O)[C@@H](C)CC)[C@@H](C)CC (stereo partly shown) [6-MO-LF11-215] ({Octanoyl(6-Me)}-FWRIRIRR-NH2)	64 (≈ 47.7 µM)	64 (≈ 47.7 µM)	34	11	10	–	–	–	–	–	–
CCC(C)CCCCC(=O)N1CCC[C@H]1C(=O)N[C@@H](Cc1ccccc1)C(=O)N[C@@H](Cc1c[nH]c2ccccc12)C(=O)N[C@@H](CCCNC(=N)N)C(=O)N[C@H](C(=O)N[C@@H](CCCNC(=N)N)C(=O)N[C@H](C(=O)N[C@@H](CCCNC(=N)N)C(=O)N[C@@H](CCCNC(=N)N)C(N)=O)[C@@H](C)CC)[C@@H](C)CC (stereo partly shown) [6-MO-LF11-322] ({Octanoyl(6-Me)}-PFWRIRIRR-NH2)	64 (≈ 44.5 µM)	64 (≈ 44.5 µM)	41	39	19	–	–	–	–	–	–
CC[C@H](C)[C@H](NC(=O)[C@H](CCCNC(=N)N)NC(=O)[C@@H](NC(=O)[C@H](CCCNC(=N)N)NC(=O)[C@H](Cc1c[nH]c2ccccc12)NC(=O)[C@H](Cc1ccccc1)NC(=O)C(C)(C)CC)[C@@H](C)CC)C(=O)N[C@@H](CCCNC(=N)N)C(=O)N[C@@H](CCCNC(=N)N)C(N)=O [DI-MB-LF11-215] ({Butanoyl(2,2-Me2)}-FWRIRIRR-NH2)	16 (≈ 12.3 µM)	16 (≈ 12.3 µM)	17	11	10	medium-range disinfection activity	higher than 35%	–	–	–	–
CC[C@H](C)[C@H](NC(=O)[C@H](CCCNC(=N)N)NC(=O)[C@@H](NC(=O)[C@H](CCCNC(=N)N)NC(=O)[C@H](Cc1c[nH]c2ccccc12)NC(=O)[C@@H](N)Cc1ccccc1)[C@@H](C)CC)C(=O)N[C@@H](CCCNC(=N)N)C(=O)N[C@@H](CCCNC(=N)N)C(N)=O [LF11-215] (H-FWRIRIRR-NH2)	–	–	–	–	–	–	–	64 (≈ 53.3 µM)	128 (≈ 107 µM)	> 10	–
CC[C@H](C)[C@H](NC(=O)[C@H](CCCNC(=N)N)NC(=O)[C@@H](NC(=O)[C@H](CCCNC(=N)N)NC(=O)[C@H](Cc1c[nH]c2ccccc12)NC(=O)[C@H](Cc1ccccc1)NC(=O)[C@@H]1CCCN1)[C@@H](C)CC)C(=O)N[C@@H](CCCNC(=N)N)C(=O)N[C@@H](CCCNC(=N)N)C(N)=O [LF11-322] (H-PFWRIRIRR-NH2)	32 (≈ 24.6 µM)	64 (≈ 49.3 µM)	–	–	–	–	–	–	–	–	–
CCCCCCCC(=O)N[C@@H](Cc1ccccc1)C(=O)N[C@@H](Cc1c[nH]c2ccccc12)C(=O)N[C@@H](CCCNC(=N)N)C(=O)N[C@H](C(=O)N[C@@H](CCCNC(=N)N)C(=O)N[C@H](C(=O)N[C@@H](CCCNC(=N)N)C(=O)N[C@@H](CCCNC(=N)N)C(N)=O)[C@@H](C)CC)[C@@H](C)CC [O-LF11-215] (Octanoyl-FWRIRIRR-NH2)	32 (≈ 24.1 µM)	32 (≈ 24.1 µM)	17	21	10	–	–	–	–	–	–

Further lines, with some results ahead:

MIC (minimal inhibitory concentration) ([1]; PAO1, 24 h) [µg/mL]	SMILES	MBC (minimal bactericidal concentration) ([1]; PAO1, 24 h) [µg/mL]	T3log at 1X MIC (time needed to decrease 3 logs the initial inoculum) [2] [minutes]	T3log at 2X MIC (time needed to decrease 3 logs the initial inoculum) [2] [minutes]	T3log at 4X MIC (time needed to decrease 3 logs the initial inoculum) [2] [minutes]	Disinfection activity (biofilm-forming bacteria killed, MTT test) ([3]; 10XMIC, 24 h at 37 °C, biofilms grown in microplates (static conditions))	Removal activity (biofilm mass removed, CV test) [4]	MIC (minimal inhibitory concentration) ([1]; PAO1 planktonic cells, broth microdilution in Mueller Hinton medium, CLSI with some modifications) [µg/mL]	MBC (minimal bactericidal concentration) ([1]; PAO1 planktonic cells, concentration causing a 3-log viability decrease in the initial inoculum, colony counts on TSA, 24 h, 37 °C) [µg/mL]	LC50 relative to the maximum concentration assayed [5] [times their MIC]	Disinfection activity (biofilm-forming bacteria killed, MTT test) ([3]; PAO1, 24 h) [%]
64 (≈ 48.9 µM)	N=C(N)NCCC[C@H](NC(=O)[C@H](CCCNC(=N)N)NC(=O)[C@H](Cc1c[nH]c2ccccc12)NC(=O)[C@H](Cc1ccccc1)NC(=O)[C@H](CCCNC(=N)N)NC(=O)[C@H](CCCNC(=N)N)NC(=O)[C@H](Cc1c[nH]c2ccccc12)NC(=O)[C@@H](N)Cc1ccccc1)C(N)=O [LF11-227] (H-FWRRFWRR-NH2)	64 (≈ 48.9 µM)	–	–	–	–	–	–	–	–	~100
8 (≈ 5.53 µM)	CC[C@H](C)[C@H](NC(=O)[C@H](CCCNC(=N)N)NC(=O)[C@@H](NC(=O)[C@H](CCCNC(=N)N)NC(=O)[C@H](Cc1c[nH]c2ccccc12)NC(=O)[C@H](Cc1ccccc1)NC(=O)[C@H](Cc1ccccc1)NC(=O)[C@@H]1CCCN1)[C@@H](C)CC)C(=O)N[C@@H](CCCNC(=N)N)C(=O)N[C@@H](CCCNC(=N)N)C(N)=O [LF11-324] (H-PFFWRIRIRR-NH2)	8 (≈ 5.53 µM)	–	–	–	–	–	–	–	–	–
128 (≈ 89.2 µM)	CCCCCCCC(=O)N[C@@H](Cc1ccccc1)C(=O)N[C@@H](Cc1c[nH]c2ccccc12)C(=O)N[C@@H](CCCNC(=N)N)C(=O)N[C@@H](CCCNC(=N)N)C(=O)N[C@@H](Cc1ccccc1)C(=O)N[C@@H](Cc1c[nH]c2ccccc12)C(=O)N[C@@H](CCCNC(=N)N)C(=O)N[C@@H](CCCNC(=N)N)C(N)=O [O-LF11-227] (Octanoyl-FWRRFWRR-NH2)	128 (≈ 89.2 µM)	10	10	10	–	–	–	–	–	–
